Reference: ChEMBL document CHEMBL1129715, “Synthesis and biological evaluation of hybrid molecules containing the pyrroloquinoline nucleus and DNA-minor groove binders” (1996)
Converted amounts (≈) assume the structure as drawn.

Columns and labels:
Type in all cases: functional
L1210/Adr = assay: In vitro cytotoxicity against L1210/Adr cancer cell lines.; conditions: Mus musculus, read-out: TD50 (the source's name)
MCF7 = assay: In vitro cytotoxicity against MCF-7 cancer cell lines.; conditions: Homo sapiens, read-out: TD50 (the source's name)
CHO = assay: In vitro cytotoxicity against CHO cancer cell lines.; conditions: Cricetulus griseus, read-out: TD50 (the source's name)
HCT-116 = assay: In vitro cytotoxicity against HCT116 cancer cell lines.; conditions: Homo sapiens, read-out: TD50 (the source's name)
L1210 = assay: In vitro cytotoxicity against L1210 cancer cell lines.; conditions: Mus musculus, read-out: TD50 (the source's name)
KB = assay: In vitro cytotoxicity against KB cancer cell lines.; conditions: Homo sapiens, read-out: TD50 (the source's name)

Row | Structure (SMILES) | CC50 (L1210/Adr) | CC50 (MCF7) | CC50 (CHO) | CC50 (HCT-116) | CC50 (L1210) | CC50 (KB)
1 | COCn1cc(NC(=O)c2cc(NC3=CC4=NCCc5cn(C)c(c54)C3=O)cn2COC)cc1C(=O)NCCCN(C)C | 3.8 µg/mL (≈ 6.43 µM) | 0.5 µg/mL (≈ 0.846 µM) | 17.5 µg/mL (≈ 29.6 µM) | 6.1 µg/mL (≈ 10.3 µM) | 8.2 µg/mL (≈ 13.9 µM) | 1.9 µg/mL (≈ 3.22 µM)
2 | COc1cccc2c1C(=O)c1c(O)c3c(c(O)c1C2=O)C[C@@](O)(C(=O)CO)C[C@@H]3O[C@H]1C[C@H](N)[C@H](O)[C@H](C)O1 [DOXORUBICIN] | 0.3 µg/mL (≈ 0.552 µM) | 0.2 µg/mL (≈ 0.368 µM) | 0.05 µg/mL (≈ 0.092 µM) | 0.17 µg/mL (≈ 0.313 µM) | 0.02 µg/mL (≈ 0.0368 µM) | 0.02 µg/mL (≈ 0.0368 µM)
3 | CCOC(=O)c1cc(NC2=CC3=NCCc4cn(C)c(c43)C2=O)cn1COC | 1 µg/mL (≈ 2.61 µM) | 0.5 µg/mL (≈ 1.31 µM) | 0.7 µg/mL (≈ 1.83 µM) | 0.4 µg/mL (≈ 1.05 µM) | 2 µg/mL (≈ 5.23 µM) | 0.5 µg/mL (≈ 1.31 µM)
4 | CCOC(=O)c1cc(NC(=O)c2cc(NC3=CC4=NCCc5cn(C)c(c54)C3=O)cn2COC)cn1COC | 3.3 µg/mL (≈ 6.17 µM) | 3.3 µg/mL (≈ 6.17 µM) | 4.2 µg/mL (≈ 7.86 µM) | 1.7 µg/mL (≈ 3.18 µM) | 4.9 µg/mL (≈ 9.17 µM) | 2.3 µg/mL (≈ 4.3 µM)
5 | COCn1cc(NC2=CC3=NCCc4cn(C)c(c43)C2=O)cc1C(=O)NCCCN(C)C | 2.5 µg/mL (≈ 5.7 µM) | 0.4 µg/mL (≈ 0.912 µM) | 49.2 µg/mL (≈ 112 µM) | 5.8 µg/mL (≈ 13.2 µM) | 3.8 µg/mL (≈ 8.67 µM) | 0.5 µg/mL (≈ 1.14 µM)
6 | CCOC(=O)c1cc(NC(=O)c2cc(NC(=O)c3cc(NC4=CC5=NCCc6cn(C)c(c65)C4=O)cn3COC)cn2COC)cn1COC | 2.5 µg/mL (≈ 3.64 µM) | 4.7 µg/mL (≈ 6.84 µM) | 4.9 µg/mL (≈ 7.14 µM) | 5.2 µg/mL (≈ 7.57 µM) | 1.3 µg/mL (≈ 1.89 µM) | 1.4 µg/mL (≈ 2.04 µM)
7 | COCn1cc(NC(=O)c2cc(NC(=O)c3cc(NC4=CC5=NCCc6cn(C)c(c65)C4=O)cn3COC)cn2COC)cc1C(=O)NCCCN(C)C | 2.8 µg/mL (≈ 3.77 µM) | 0.2 µg/mL (≈ 0.269 µM) | 0.9 µg/mL (≈ 1.21 µM) | 2.1 µg/mL (≈ 2.83 µM) | 3.3 µg/mL (≈ 4.44 µM) | 0.4 µg/mL (≈ 0.538 µM)
